Laboratory results as given in the supplement of paper PMC10307832.

Columns and labels:
Assay in all cases: relative viability (nuclei count vs DMSO), 5 days (fraction); higher = more cells survive
[1] = system: NCI-H1666
In short: (§1)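 Relative viability equals treated-well nuclei counts divided by vehicle-well nuclei counts. Counts came from 4× images of lung cancer cell lines grown in 1536-well plates for 5 days after pin-tool dosing on the day after seeding. Dosing used one drug alone or a fixed anchor-drug dose plus five library-drug doses (not always all listed) in √10 steps, and values are medians of duplicate plates.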

[2] = system: NCI-H1734
In short: as §1

[3] = system: SW 900
In short: as §1

[4] = system: LOU-NH91
In short: as §1

[5] = system: NCI-H1944
In short: as §1

[6] = system: NCI-H23
In short: as §1

[7] = system: NCI-H1755
In short: as §1

[8] = system: NCI-H1792
In short: as §1

[9] = system: EKVX
In short: as §1

[10] = system: HCC-366
In short: as §1

[11] = system: PC-3 [JPC-3]
In short: as §1

[12] = system: LK-2
In short: as §1

[13] = system: NCI-H596
In short: as §1

[14] = system: NCI-H1975
In short: as §1

[15] = system: EMC-BAC-2
In short: as §1

[16] = system: NCI-H441
In short: as §1

[17] = system: NCI-H2170
In short: as §1

[18] = system: H3255
In short: as §1

[19] = system: ChaGo-K-1
In short: as §1

[20] = system: A-427
In short: as §1

## CC(C)Oc1cc(Nc2nc(N[C@@H](C)c3ccc(F)cn3)ncc2Cl)n[nH]1 [AZ23] + NC(=O)Nc1cc(-c2cccc(F)c2)sc1C(=O)N[C@H]1CCCNC1 [AZD7762] (partner 0.2 µM)
[1]; first compound 0.01 µM
  relative viability: 0.91
[1]; first compound 0.03162 µM
  relative viability: 0.772
[1]; first compound 0.3162 µM
  relative viability: 0.977
[2]; first compound 0.01 µM
  relative viability: 0.602
[2]; first compound 0.03162 µM
  relative viability: 0.688
[2]; first compound 0.3162 µM
  relative viability: 0.795
[3]; first compound 0.01 µM
  relative viability: 0.556
[3]; first compound 0.3162 µM
  relative viability: 0.74
[4]; first compound 0.01 µM
  relative viability: 0.777
[4]; first compound 0.03162 µM
  relative viability: 0.853
[4]; first compound 0.3162 µM
  relative viability: 0.803
[5]; first compound 0.01 µM
  relative viability: 0.413
[5]; first compound 0.03162 µM
  relative viability: 0.532
[5]; first compound 0.3162 µM
  relative viability: 0.646
[6]; first compound 0.03162 µM
  relative viability: 0.204
[6]; first compound 0.3162 µM
  relative viability: 0.309
[7]; first compound 0.01 µM
  relative viability: 0.413
[7]; first compound 0.03162 µM
  relative viability: 0.471
[7]; first compound 0.3162 µM
  relative viability: 0.477
[8]; first compound 0.01 µM
  relative viability: 0.595
[8]; first compound 0.03162 µM
  relative viability: 0.515
[8]; first compound 0.3162 µM
  relative viability: 0.904
[9]; first compound 0.01 µM
  relative viability: 0.625
[9]; first compound 0.03162 µM
  relative viability: 0.837
[9]; first compound 0.3162 µM
  relative viability: 0.676
[10]; first compound 0.01 µM
  relative viability: 0.239
[10]; first compound 0.03162 µM
  relative viability: 0.423
[10]; first compound 0.3162 µM
  relative viability: 0.496
[11]; first compound 0.01 µM
  relative viability: 0.663
[11]; first compound 0.03162 µM
  relative viability: 0.837
[11]; first compound 0.3162 µM
  relative viability: 0.77
[12]; first compound 0.03162 µM
  relative viability: 0.472
[12]; first compound 0.3162 µM
  relative viability: 0.411
[13]; first compound 0.01 µM
  relative viability: 1.02
[13]; first compound 0.03162 µM
  relative viability: 1.04
[13]; first compound 0.3162 µM
  relative viability: 1.03
[14]; first compound 0.01 µM
  relative viability: 0.555
[14]; first compound 0.03162 µM
  relative viability: 0.799
[14]; first compound 0.3162 µM
  relative viability: 0.828
[15]; first compound 0.01 µM
  relative viability: 0.983
[15]; first compound 0.03162 µM
  relative viability: 1.21
[15]; first compound 0.3162 µM
  relative viability: 1.03
[16]; first compound 0.01 µM
  relative viability: 1.17
[16]; first compound 0.03162 µM
  relative viability: 1.03
[16]; first compound 0.3162 µM
  relative viability: 1.33
[17]; first compound 0.01 µM
  relative viability: 0.885
[17]; first compound 0.03162 µM
  relative viability: 0.887
[17]; first compound 0.3162 µM
  relative viability: 1.06
[18]; first compound 0.01 µM
  relative viability: 0.828
[18]; first compound 0.03162 µM
  relative viability: 0.958
[18]; first compound 0.3162 µM
  relative viability: 0.931
[19]; first compound 0.01 µM
  relative viability: 0.93
[19]; first compound 0.03162 µM
  relative viability: 0.811
[19]; first compound 0.3162 µM
  relative viability: 0.959
[20]; first compound 0.01 µM
  relative viability: 0.462
[20]; first compound 0.03162 µM
  relative viability: 0.724
[20]; first compound 0.3162 µM
  relative viability: 1.01

## Clc1ccc(Nc2nnc(Cc3ccncc3)c3ccccc23)cc1 [Vatalanib] + NC(=O)Nc1cc(-c2cccc(F)c2)sc1C(=O)N[C@H]1CCCNC1 [AZD7762] (partner 0.2 µM)
[1]; first compound 0.04 µM
  relative viability: 0.733
[1]; first compound 0.1265 µM
  relative viability: 0.874
[1]; first compound 0.4 µM
  relative viability: 0.855
[1]; first compound 1.265 µM
  relative viability: 0.694
[1]; first compound 4 µM
  relative viability: 0.762
[2]; first compound 0.04 µM
  relative viability: 0.534
[2]; first compound 0.1265 µM
  relative viability: 0.484
[2]; first compound 0.4 µM
  relative viability: 0.537
[2]; first compound 1.265 µM
  relative viability: 0.536
[2]; first compound 4 µM
  relative viability: 0.528
[3]; first compound 0.04 µM
  relative viability: 0.596
[3]; first compound 0.1265 µM
  relative viability: 0.653
[3]; first compound 0.4 µM
  relative viability: 0.567
[3]; first compound 1.265 µM
  relative viability: 0.69
[3]; first compound 4 µM
  relative viability: 0.6
[4]; first compound 0.04 µM
  relative viability: 0.786
[4]; first compound 0.1265 µM
  relative viability: 0.691
[4]; first compound 0.4 µM
  relative viability: 0.756
[4]; first compound 1.265 µM
  relative viability: 0.708
[4]; first compound 4 µM
  relative viability: 0.686
[5]; first compound 0.04 µM
  relative viability: 0.467
[5]; first compound 0.1265 µM
  relative viability: 0.463
[5]; first compound 0.4 µM
  relative viability: 0.623
[5]; first compound 1.265 µM
  relative viability: 0.46
[5]; first compound 4 µM
  relative viability: 0.468
[6]; first compound 0.04 µM
  relative viability: 0.269
[6]; first compound 0.1265 µM
  relative viability: 0.229
[6]; first compound 0.4 µM
  relative viability: 0.228
[6]; first compound 1.265 µM
  relative viability: 0.259
[6]; first compound 4 µM
  relative viability: 0.266
[7]; first compound 0.04 µM
  relative viability: 0.451
[7]; first compound 0.1265 µM
  relative viability: 0.406
[7]; first compound 0.4 µM
  relative viability: 0.489
[7]; first compound 1.265 µM
  relative viability: 0.418
[7]; first compound 4 µM
  relative viability: 0.419
[8]; first compound 0.04 µM
  relative viability: 0.723
[8]; first compound 0.1265 µM
  relative viability: 0.663
[8]; first compound 0.4 µM
  relative viability: 0.728
[8]; first compound 1.265 µM
  relative viability: 0.503
[8]; first compound 4 µM
  relative viability: 0.581
[9]; first compound 0.04 µM
  relative viability: 0.646
[9]; first compound 0.1265 µM
  relative viability: 0.623
[9]; first compound 0.4 µM
  relative viability: 0.679
[9]; first compound 1.265 µM
  relative viability: 0.679
[9]; first compound 4 µM
  relative viability: 0.64
[10]; first compound 0.04 µM
  relative viability: 0.325
[10]; first compound 0.1265 µM
  relative viability: 0.253
[10]; first compound 0.4 µM
  relative viability: 0.32
[10]; first compound 1.265 µM
  relative viability: 0.194
[10]; first compound 4 µM
  relative viability: 0.226
[11]; first compound 0.04 µM
  relative viability: 0.81
[11]; first compound 0.1265 µM
  relative viability: 0.751
[11]; first compound 0.4 µM
  relative viability: 0.674
[11]; first compound 1.265 µM
  relative viability: 0.705
[11]; first compound 4 µM
  relative viability: 0.728
[12]; first compound 0.04 µM
  relative viability: 0.394
[12]; first compound 0.1265 µM
  relative viability: 0.412
[12]; first compound 0.4 µM
  relative viability: 0.496
[12]; first compound 1.265 µM
  relative viability: 0.353
[12]; first compound 4 µM
  relative viability: 0.446
[13]; first compound 0.04 µM
  relative viability: 1.11
[13]; first compound 0.1265 µM
  relative viability: 1.25
[13]; first compound 0.4 µM
  relative viability: 1.18
[13]; first compound 1.265 µM
  relative viability: 1.1
[13]; first compound 4 µM
  relative viability: 0.907
[14]; first compound 0.04 µM
  relative viability: 0.731
[14]; first compound 0.1265 µM
  relative viability: 0.66
[14]; first compound 0.4 µM
  relative viability: 0.59
[14]; first compound 1.265 µM
  relative viability: 0.492
[14]; first compound 4 µM
  relative viability: 0.568
[15]; first compound 0.04 µM
  relative viability: 1.05
[15]; first compound 0.1265 µM
  relative viability: 0.991
[15]; first compound 0.4 µM
  relative viability: 1.12
[15]; first compound 4 µM
  relative viability: 1.15
[16]; first compound 0.04 µM
  relative viability: 1.05
[16]; first compound 0.1265 µM
  relative viability: 1.18
[16]; first compound 0.4 µM
  relative viability: 1.19
[16]; first compound 1.265 µM
  relative viability: 1.02
[16]; first compound 4 µM
  relative viability: 0.892
[17]; first compound 0.04 µM
  relative viability: 0.988
[17]; first compound 0.1265 µM
  relative viability: 0.77
[17]; first compound 0.4 µM
  relative viability: 0.892
[17]; first compound 1.265 µM
  relative viability: 0.837
[17]; first compound 4 µM
  relative viability: 0.785
[18]; first compound 0.04 µM
  relative viability: 0.829
[18]; first compound 0.1265 µM
  relative viability: 0.892
[18]; first compound 0.4 µM
  relative viability: 0.832
[18]; first compound 1.265 µM
  relative viability: 0.732
[18]; first compound 4 µM
  relative viability: 0.773
[19]; first compound 0.04 µM
  relative viability: 0.941
[19]; first compound 0.1265 µM
  relative viability: 0.845
[19]; first compound 0.4 µM
  relative viability: 0.88
[19]; first compound 1.265 µM
  relative viability: 0.865
[19]; first compound 4 µM
  relative viability: 0.876
[20]; first compound 0.04 µM
  relative viability: 0.797
[20]; first compound 0.1265 µM
  relative viability: 0.736
[20]; first compound 0.4 µM
  relative viability: 0.761
[20]; first compound 4 µM
  relative viability: 0.64
